Values after ≈ are worked out from the molar mass of the structure shown.
What was measured:
[1] = tested on: RKO (human colon adenocarcinoma cell); test: Solid tumor cell growth inhibition, MTT, 72 h (Example 7); format: cell-based; settings: Homo sapiens; 72 h, MTT, RKO
Procedure, shortened: (§1)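 Each line is plated at 4000 cells per well in high-glucose DMEM supplemented with 10% FBS. After 24 h settling, derivatives at several concentrations are mixed in and cultured 72 h; MTT then gives viable cells, with untreated wells set to 100%.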

[2] = tested on: Huh7 (human liver cancer cell); test: as above; format: cell-based; settings: Homo sapiens; 72 h, MTT, Huh-7
Procedure, shortened: as §1

[3] = tested on: MGC 803 (human gastric cancer cell); test: as above; format: cell-based; settings: Homo sapiens
Procedure, shortened: as §1

A549 (human lung cancer) = test: as above; format: cell-based; settings: for IC50 / IC90: Homo sapiens, 72 h, MTT, A549
Procedure, shortened: as §1

[4] = tested on: Becap37 (human breast cancer cell); test: as above; format: cell-based; settings: Homo sapiens; 72 h, MTT, Becap-37
Procedure, shortened: as §1

[5] = tested on: NB4 (acute promyelocytic leukemia, AML); test: Leukemia cell growth inhibition, MTT, 72 h (Example 5); format: cell-based, human; settings: Homo sapiens; 72 h, MTT
Procedure, shortened: (§2)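 Viability read by MTT after 72 h of compound treatment at 37 °C under 5% CO2; each well seeded with 6000 cells in 1640 medium plus 10% fetal bovine serum, compounds at several concentrations.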

[6] = tested on: K562/adr (drug-resistant, chronic myeloid leukemia, CML); test: as above; format: cell-based, human; settings: Homo sapiens, K562/Adr; 72 h, MTT
Procedure, shortened: as §2

[7] = tested on: H9 (acute lymphoblastic leukemia, ALL); test: as above; format: cell-based, human; settings: Homo sapiens; 72 h, MTT
Procedure, shortened: as §2

[8] = tested on: Jurkat (acute lymphoblastic leukemia, ALL); test: as above; format: cell-based, human; settings: Homo sapiens, Jurkat; 72 h, MTT
Procedure, shortened: as §2

[9] = tested on: Kasumi-1 (acute myeloid leukemia M2 type, AML-M2); test: as above; format: cell-based, human; settings: Homo sapiens, Kasumi 1
Procedure, shortened: as §2

[10] = tested on: RPMI8226 (multiple myeloma); test: Multiple myeloma cell growth inhibition, MTT, 72 h (Example 6); format: cell-based, human; settings: Homo sapiens, RPMI-8226; 72 h, MTT, RPMI8226
Procedure, shortened: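 Viability was read by MTT after 72 h of compound exposure at 37 °C, 5% CO2. Each well held 6000 RPMI8226 cells in 1640 medium containing 10% fetal bovine serum, with derivatives added at various concentrations.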

[11] = tested on: PANC-1 (pancreatic cancer); test: Solid tumor cell growth inhibition, MTT, 72 h (Example 7); format: cell-based, human; settings: Homo sapiens; 72 h, MTT, PANC-1
Procedure, shortened: as §1

[12] = tested on: CaES-17 (esophageal cancer cell); test: as above; format: cell-based, human; settings: Homo sapiens, CaEs17; 72 h, MTT, CAES-17
Procedure, shortened: as §1

PC-3 (prostate cancer) = test: as above; format: cell-based, human; settings: for IC50 / IC90: Homo sapiens, 72 h, MTT, PC-3
Procedure, shortened: as §1

MG63 (osteosarcoma) = test: as above; format: cell-based, human; settings: Homo sapiens; 72 h, MTT, MG-63
Procedure, shortened: as §1

Row | Compound | IC50 [1] | IC90 [1] | IC50 [2] | IC90 [2] | IC50 [3] | IC90 [3] | IC50 (A549 (human lung cancer)) | IC90 (A549 (human lung cancer)) | IC50 [4] | IC90 [4] | IC50 [5] | IC90 [5] | IC50 [6] | IC90 [6] | IC50 [7] | IC90 [7] | IC50 [8] | IC90 [8] | IC50 [9] | IC90 [9] | also measured
1 | COc1ccc2cc1Oc1ccc(cc1)C[C@H]1c3cc(c(OC)cc3CCN1C)Oc1c(OC)c(OC)c(COC(C)=O)c3c1[C@H](C2)N(C)CC3 [BS-TE-223] | 4.23 mg/L (≈ 6.09 µM) | 7.5 mg/L (≈ 10.8 µM) | 4.14 mg/L (≈ 5.96 µM) | 7.97 mg/L (≈ 11.5 µM) | 3.54 mg/L (≈ 5.09 µM) | 38.1 mg/L (≈ 54.8 µM) | 4.45 mg/L (≈ 6.4 µM) | 14.2 mg/L (≈ 20.4 µM) | 6.77 mg/L (≈ 9.74 µM) | 15 mg/L (≈ 21.6 µM) | 2.57 mg/L (≈ 3.7 µM) | 7.42 mg/L (≈ 10.7 µM) | 0.5 mg/L (≈ 0.72 µM) | 9.91 mg/L (≈ 14.3 µM) | 4.19 mg/L (≈ 6.03 µM) | 8.89 mg/L (≈ 12.8 µM) | 3.42 mg/L (≈ 4.92 µM) | 11.3 mg/L (≈ 16.2 µM) | 2 mg/L (≈ 2.88 µM) | 8 mg/L (≈ 11.5 µM) | IC50 [10]: 0.23 mg/L (≈ 0.331 µM); IC90 [10]: 2.29 mg/L (≈ 3.3 µM); IC50 [11]: 10.7 mg/L (≈ 15.4 µM); IC90 [11]: 16 mg/L (≈ 23 µM); IC50 [12]: 9.8 mg/L (≈ 14.1 µM); IC90 [12]: 37.5 mg/L (≈ 54 µM); IC50 (PC-3 (prostate cancer)): 5.6 mg/L (≈ 8.06 µM); IC90 (PC-3 (prostate cancer)): 28 mg/L (≈ 40.3 µM); IC50 (MG63 (osteosarcoma)): 5.13 mg/L (≈ 7.38 µM); IC90 (MG63 (osteosarcoma)): 7.64 mg/L (≈ 11 µM)
2 | COc1ccc2cc1Oc1ccc(cc1)C[C@H]1c3cc(c(OC)cc3CCN1C)Oc1c(OC)c(OC)c(CN3CCCC3)c3c1[C@H](C2)N(C)CC3 [BS-TE-305] | 0.66 mg/L (≈ 0.935 µM) | 1.65 mg/L (≈ 2.34 µM) | 1.28 mg/L (≈ 1.81 µM) | 2.3 mg/L (≈ 3.26 µM) | 1 mg/L (≈ 1.42 µM) | 10 mg/L (≈ 14.2 µM) | 1 mg/L (≈ 1.42 µM) | 5.25 mg/L (≈ 7.44 µM) | 1.44 mg/L (≈ 2.04 µM) | 6.24 mg/L (≈ 8.84 µM) | 0.29 mg/L (≈ 0.411 µM) | 2 mg/L (≈ 2.83 µM) | 0.44 mg/L (≈ 0.623 µM) | 7.2 mg/L (≈ 10.2 µM) | 0.7 mg/L (≈ 0.992 µM) | 1.44 mg/L (≈ 2.04 µM) | 1.35 mg/L (≈ 1.91 µM) | 4.96 mg/L (≈ 7.03 µM) | 0.52 mg/L (≈ 0.737 µM) | 3.11 mg/L (≈ 4.41 µM) | anti-A549 activity increase over tetrandrine (A549 (human lung cancer); compared with tetrandrine): ~3 fold; IC50 [10]: 0.006 mg/L (≈ 0.0085 µM); IC90 [10]: 0.42 mg/L (≈ 0.595 µM); IC50 [11]: 3.72 mg/L (≈ 5.27 µM); IC90 [11]: 13.4 mg/L (≈ 19 µM); IC50 [12]: 1.1 mg/L (≈ 1.56 µM); IC90 [12]: 17 mg/L (≈ 24 µM); IC50 (PC-3 (prostate cancer)): 1.56 mg/L (≈ 2.21 µM); IC90 (PC-3 (prostate cancer)): 4.9 mg/L (≈ 6.94 µM); anti-PC-3 activity increase over tetrandrine (PC-3 (prostate cancer); compared with tetrandrine): ~4 fold; IC50 (MG63 (osteosarcoma)): 0.74 mg/L (≈ 1.05 µM); IC90 (MG63 (osteosarcoma)): 2.05 mg/L (≈ 2.9 µM)

Source: US9133207B2, “Tetrandrine derivatives with substituted 5-carbon, preparation method and use thereof” (Hangzhou Bensheng Pharmaceutical Co., Ltd., priority 2011, dated 2015)
